According to patent US6670382B2, “Hydroxyformamidine derivatives and medicines containing the same” (Taisho Pharmaceutical Co., Ltd., priority 2000, dated 2003):

Columns and labels:
[1] = tested on: 20-HETE synthase derived from rat kidney microsome; assay: Inhibitory effect of 20-HETE synthase derived from rat kidney microsome; type: biochemical; conditions: SHR rat kidney microsome; for Inhibition (1 µM): inhibition rate of 20-HETE production, subject compound 1 μM, 3H-arachidonic acid, NADPH, 1.5 hours at 37° C., pH 7.4; for IC50: concentration at which 20-HETE production was inhibited to 50%
Experimental: [Inhibitory Effect of 20-HETE Synthase Derived from Rat Kidney Microsome]
Regarding the compounds listed in the Table described above, their inhibitory activities on production of 20-HETE were examined.
This examination was carried out based on the method described in J. Pharmacol. Exp. Ther., Vol. 268, p. 474 (1994).
The subject compound in an amount of 1 μM was added to a 50 mM of 3-morpholinopropanesulfonic acid buffer (MOPS) (pH 7.4), containing 5 mM of magnesium chloride, and 1 mM of ethylenediaminetetraacetic acid (EDTA) disodium salt.
Subsequently, the rat kidney microsome fraction prepared from the kidney of a spontaneously hypertensive rat (male, 6 weeks of age) as an enzyme, [5,6,8,9,11,12,14,15] tritium-arachidonic acid (supplied by Amasham) as a substrate, and NADPH (supplied by Sigma) as a coenzyme were added, and were reacted for 1.5 hours at 37° C.
After the reaction was quenched by adding formic acid (supplied by Wako Pure Chemical Industries Ltd.) to the reaction solution, acetonitrile (final concentration of 50%) was added thereto, and the mixture was allowed to stand for 1.5 hours at room temperature. The amount of 20-HETE production was measured by using a high performance liquid chromatography having a detector for radioactive substances (supplied by Gilson), equipped with an ODS column (Biocyl C18, supplied by Bio-rad).
Setting an amount of 20-HETE production to 100% when no subject compound was added, the inhibition rate (%) was calculated from the amount of 20-HETE production when a subject compound was added.
In addition, setting an amount of 20-HETE production to 100% when no subject compound was added, the concentration of the subject compound at which the production of the 20-HETE was inhibited to 50% when the subject compound is added (IC50 value) was also calculated.

| Compound | Inhibition (1 µM) [1] | melting point | IC50 [1] |
| --- | --- | --- | --- |
| C=CCCOc1ccc(N/C=N/O)cn1 [Comp. 55] | 87.3% | 119 to 120 °C | – |
| O/N=C/Nc1ccc(OCCCn2cccc2)nc1 [Comp. 91] | 103.0% | 140 to 141 °C | 6.4 nM |
| CC(C)(C)Sc1ccc(N/C=N/O)cn1 [Comp. 117] | 69.3% | 174.5 to 175 °C | 435 nM |
| O/N=C/Nc1ccc(OCCc2ccsc2)nc1 [Comp. 99] | 95.4% | 138 to 140 °C | 1.9 nM |
| CCOCCCOc1ccc(N/C=N/O)cn1 [Comp. 59] | 109.6% | 99 to 100 °C | 4.4 nM |
| CN1CCC(CCOc2ccc(N/C=N/O)cn2)CC1 [Comp. 128] | – | 131 to 133 °C | 312 nM |
| O/N=C/Nc1ccc(OCC2CCCCO2)nc1 (stereo not drawn) [Comp. 97] | 85.5% | 149.5 to 152.5 °C | 58.1 nM |
| CC(C)CCOc1ccc(N/C=N/O)cn1 [Comp. 53] | 108.5% | 123 to 125 °C | 6.8 nM |
| COCCOc1ccc(N/C=N/O)cn1 [Comp. 7] | 41.9% | 104.5 to 106 °C | 781 nM |
| CN(C)CCSc1ccc(N/C=N/O)cn1 [Comp. 126] | – | 153.5 to 154.5 °C | – |
| CCCCOc1ccc(N/C=N/O)cn1 [Comp. 10] | 106.3% | 127 to 128 °C | 167 nM |
| O/N=C/Nc1ccc(OCC2CCCO2)nc1 (stereo not drawn) [Comp. 96] | 92.3% | 114 to 115 °C | 140 nM |
| COc1ccccc1COc1ccc(N/C=N/O)cn1 [Comp. 72] | 92.9% | 146.5 to 147.5 °C | 59 nM |
| CC(C)(COc1ccc(N/C=N/O)cn1)CN1CCCCC1 [Comp. 134] | – | 91 to 93 °C | – |
| COc1cccc(COc2ccc(N/C=N/O)cn2)c1OC [Comp. 82] | 104.5% | 128.5 to 129 °C | 60.1 nM |
| CC#CCCOc1ccc(N/C=N/O)cn1 [Comp. 46] | 89.9% | 151 to 152 °C | 9.8 nM |
| O/N=C/Nc1ccc(OCC2COCO2)nc1 (stereo not drawn) [Comp. 87] | 87.0% | 186.5 to 187 °C | 264 nM |
| CSCCCOc1ccc(N/C=N/O)cn1 [Comp. 93] | 97.4% | 109 to 111 °C | 6.6 nM |
| CC#CCOc1ccc(N/C=N/O)cn1 [Comp. 65, N-[2-(2-butyn-1-oxy)pyridin-5-yl]-N′-hydroxyformamidine] | 86.9% | 155.5 to 157 °C | 68.2 nM |
| CC(C)Oc1ccc(N/C=N/O)cn1 [Comp. 8] | 71.0% | 116.5 to 117 °C | 603 nM |
| COc1ccc(COc2ccc(N/C=N/O)cn2)cc1 [Comp. 77] | 100.3% | 164.5 to 165.5 °C | 3.3 nM |
| CCC(C)Sc1ccc(N/C=N/O)cn1 (stereo not drawn) [Comp. 111] | 76.8% | 125.5 to 127.5 °C | 33.8 nM |
| O/N=C/Nc1ccc(SCc2ccco2)nc1 [Comp. 110] | 85.7% | 140.5 to 141.5 °C | 12.1 nM |
| O/N=C/Nc1ccc(SCc2ccccc2)nc1 [Comp. 104, N-[2-(benzylthio)pyridin-5-yl]-N′-hydroxyformamidine] | 103.6% | 133 to 135 °C | – |
| O/N=C/Nc1ccc(OCc2ccc(F)cc2)nc1 [Comp. 80] | 102.9% | 166.5 to 167.5 °C | 3.9 nM |
| C#CCCCOc1ccc(N/C=N/O)cn1 [Comp. 56] | 102.1% | 124.5 to 125.5 °C | 14.7 nM |

| Compound | Inhibition (1 µM) [1] | melting point | IC50 [1] |
| --- | --- | --- | --- |
| CC(C)Sc1ccc(N/C=N/O)cn1 [Comp. 102] | 74.5% | 141 to 142 °C | 18.2 nM |
| O/N=C/Nc1ccc(OCCc2cccs2)nc1 [Comp. 98] | 100.7% | 137.5 to 138.5 °C | 4.3 nM |
| COc1cccc(COc2ccc(N/C=N/O)cn2)c1 [Comp. 78] | 100.2% | 126 to 127 °C | 4.2 nM |
| C=CCCCOc1ccc(N/C=N/O)cn1 [Comp. 54] | 111.7% | 120 to 122 °C | 5.9 nM |
| CN(C)CCCCCCOc1ccc(N/C=N/O)cn1 [Comp. 133] | – | 110 to 111.5 °C | 53.6 nM |
| OCCSc1ccc(N/C=N/O)cn1 [Comp. 107] | 83.1% | 115 to 115.5 °C | 294 nM |
| CCN(CC)CCSc1ccc(N/C=N/O)cn1 [Comp. 127] | – | 124.5 to 125.5 °C | 330 nM |
| CN(C)CC(C)(C)COc1ccc(N/C=N/O)cn1 [Comp. 123, N-[2-(3-dimethylamino-2,2-dimethylpropyl-1-oxy)pyridin-5-yl]-N′-hydroxyformamidine] | 97.5% | 74 to 76.5 °C | 0.6 nM |
| N#Cc1cccc(COc2ccc(N/C=N/O)cn2)c1 [Comp. 81] | 104.4% | 166.5 to 167 °C | 1.7 nM |
| CC/C=C/COc1ccc(N/C=N/O)cn1 [Comp. 47] | 99.2% | 82 to 84 °C | 45.4 nM |
| CCCCOCCOc1ccc(N/C=N/O)cn1 [Comp. 61] | 99.8% | 113 to 114.5 °C | 13.1 nM |
| CN1CCCC(COc2ccc(N/C=N/O)cn2)C1 (stereo not drawn) [Comp. 124] | 92.6% | 122 to 124 °C | 142 nM |
| CSCCOc1ccc(N/C=N/O)cn1 [Comp. 92] | 87.6% | 111.5 to 112 °C | 71.9 nM |
| C/C=C/COc1ccc(N/C=N/O)cn1 [Comp. 45] | 80.3% | 143 to 144.5 °C | 10.7 nM |
| O/N=C/Nc1ccc(OCCc2ccccn2)nc1 [Comp. 5] | – | 128.5 to 130 °C | 14.9 nM |
| O/N=C/Nc1ccc(SC2CCCC2)nc1 [Comp. 109] | 82.1% | 153.5 to 154.5 °C | 11.5 nM |
| O/N=C/Nc1ccc(OCc2ccccc2)nc1 [Comp. 9] | 82.9% | 163.5 to 164 °C | 9.1 nM |
| O/N=C/Nc1ccc(OCCOc2ccccc2)nc1 [Comp. 94] | 100.3% | 153 to 154 °C | 3.2 nM |
| O/N=C/Nc1ccc(OCc2cc(F)ccc2F)nc1 [Comp. 73] | 105.0% | 158.5 to 159.5 °C | 6.4 nM |
| C#CCOc1ccc(N/C=N/O)cn1 [Comp. 121] | 99.8% | 143.5 to 144.5 °C | 400 nM |
| CCN(CC)CCCC(C)Oc1ccc(N/C=N/O)cn1 (stereo not drawn) [Comp. 130] | – | 122 °C (dec.) | – |
| OCCCSc1ccc(N/C=N/O)cn1 [Comp. 120] | 102.0% | 105 to 105.5 °C | 117 nM |
| O/N=C/Nc1ccc(OCc2ccccn2)nc1 [Comp. 6, N-[2-(pyridin-2-ylmethoxy)pyridin-5-yl]-N′-hydroxyformamidine] | – | 153.5 to 155.5 °C | – |
| CN(C)CCCOc1ccc(N/C=N/O)cn1 [Comp. 132] | – | 108 to 112 °C | 566 nM |
| COc1ccccc1CCOc1ccc(N/C=N/O)cn1 [Comp. 69] | 102.8% | 159.5 to 161 °C | 6.5 nM |
